# Laboratory results taken from article PMC12527173, “Cytotoxic, anti-inflammatory, antioxidant, and anti-glyoxalase-I evaluation of chelating substances: In silico and in vitro study” (PLOS One, 2025).
# Where two headings read alike, the source gives them in different places.
# Legend:
# [1] = biological target: T1, human recombinant Glo-I enzyme (rhGlo-I) (Homo sapiens, UniProt Q04760); set-up: method as in PMID 34264188; details: prior publication ref 87; read-out: IC50 against Glo-I; cited from earlier work
# T1 construct: N-terminal Met and 6-His tag (N); purchased R&D Systems; host or cells: E. coli
# T1 sequence (Q04760 2-184 limits assumed): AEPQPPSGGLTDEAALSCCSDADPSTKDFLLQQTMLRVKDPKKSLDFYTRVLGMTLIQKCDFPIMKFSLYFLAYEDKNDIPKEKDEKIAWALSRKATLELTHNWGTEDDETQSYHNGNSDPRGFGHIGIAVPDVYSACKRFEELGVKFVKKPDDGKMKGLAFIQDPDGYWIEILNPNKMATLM
# [2] = tested on: HT-29 colorectal cancer cell line; assay: SRB cytotoxicity assay, HT29; format: cell-based; details: Homo sapiens, 72 h incubation, n = 12, read-out: Cytotoxicity (as of %Control) IC50 value HT29
# Procedure: (§1) The cancer cell lines were cultured in DMEM supplemented with 10% FBS (Bio Whittaker, Verviers, Belgium), HEPES Buffer (10 mM), gentamicin (50 µg/mL), L-glutamine (100 μg/mL), streptomycin ([…]), penicillin (100 µg/mL), and 4-(2-hydroxyethyl)-1-piperazineethanesulfonic acid (HEPES) Buffer (Sigma, St. Luis, MO, USA). The Sulforhodamine B used was obtained from Santa Cruz Biotechnology, Inc. in Texas, USA. […] Periodontal ligament fibroblasts (PDL) were utilized to assess specific cytotoxicity. Cancer cell lines that have survived offer several benefits. They provide a consistent and uninterrupted source of cells, so bypassing any ethical concerns related to the use of human tissue. Additionally, they are cost-effective. The cytotoxicity levels were assessed using the Sulforhodamine B (SRB) colorimetric assay, provided by Santa Cruz Biotechnology, Inc. in Texas, USA. The Spectro Scan 80D UV-VIS spectrophotometer, manufactured by Sedico Ltd. in Nicosia, Cyprus, was employed for this cytotoxicity screening. The cells were co-incubated with substances or a reference agent at various doses ranging from 5 to 200 μg/mL. […] The reduction in cell viability was analyzed by plotting Dose-response curves and expressing the data as a percentage of the control optical density. The IC50 values were obtained using regression analysis.
# [3] = tested on: Human PC3 prostate cancer cell line; assay: SRB cytotoxicity assay, PC3; format: cell-based; details: 72 h incubation, n = 12, read-out: Cytotoxicity (as of %Control) IC50 value PC3 prostate malignancy
# Procedure: as §1
# [4] = tested on: Breast cancer cell line MCF7; assay: SRB cytotoxicity assay, MCF7; format: cell-based; details: Homo sapiens, 72 h incubation, n = 12, read-out: Cytotoxicity (as of %Control) IC50 value MCF7 mammary malignancy
# Procedure: as §1
# [5] = tested on: PANC1 pancreatic cell line; assay: SRB cytotoxicity assay, PANC1; format: cell-based; details: Homo sapiens, PANC-1, 72 h incubation, n = 12, read-out: Cytotoxicity (as of %Control) IC50 value PANC1
# Procedure: as §1
# [6] = tested on: A549 lung cancer cell line; assay: SRB cytotoxicity assay, A549; format: cell-based; details: Homo sapiens, 72 h incubation, n = 12, read-out: Cytotoxicity (as of %Control) IC50 value A549 lung malignancy
# Procedure: as §1
# [7] = tested on: SW480 colorectal cancer cell line; assay: SRB cytotoxicity assay, SW480; format: cell-based; details: Homo sapiens, 72 h incubation, n = 12, read-out: Cytotoxicity (as of %Control) IC50 value SW480
# Procedure: as §1
# [8] = SRB cytotoxicity assay, normal PDL fibroblasts; format: cell-based; details: normal periodontal ligament (PDL) fibroblasts, 72 h incubation, 0.1–200 µM range, read-out: Cytotoxicity (as of %Control) IC50 value PDL fibroblasts
# Procedure: as §1
# [9] = tested on: SW620 colorectal cancer cell line; assay: SRB cytotoxicity assay, SW620; format: cell-based; details: Homo sapiens, SW-620, 72 h incubation, n = 12, read-out: Cytotoxicity (as of %Control) IC50 value SW620
# Procedure: as §1
# [10] = tested on: T47D breast cancer cell line; assay: SRB cytotoxicity assay, T47D; format: cell-based; details: Homo sapiens, 72 h incubation, n = 12, read-out: Cytotoxicity (as of %Control) IC50 value T47D mammary malignancy
# Procedure: as §1
# [11] = tested on: A375 human skin cancer cell line; assay: SRB cytotoxicity assay, A375; format: cell-based; details: A-375, 72 h incubation, n = 12, read-out: Cytotoxicity (as of %Control) IC50 value A375 skin melanoma
# Procedure: as §1
# [12] = tested on: HCT116 colorectal cancer cell line; assay: SRB cytotoxicity assay, HCT116; format: cell-based; details: Homo sapiens, HCT-116, 72 h incubation, n = 12, read-out: Cytotoxicity (as of %Control) IC50 value HCT116
# Procedure: as §1
# [13] = tested on: CACO2 colorectal cancer cell line; assay: SRB cytotoxicity assay, CACO2; format: cell-based; details: Homo sapiens, Caco-2, 72 h incubation, n = 12, read-out: Cytotoxicity (as of %Control) IC50 value CACO2
# Procedure: as §1
# [14] = tested on: HeLa uterine cervix adenocarcinoma cell line; assay: SRB cytotoxicity assay, HeLa; format: cell-based; details: Homo sapiens, 72 h incubation, n = 12, read-out: Cytotoxicity (as of %Control) IC50 value Hela cervix malignancy
# Procedure: as §1
# [15] = tested on: LPS-primed RAW 264.7 murine macrophages (nitrite / iNOS); assay: Anti-inflammatory (nitrite) determination in LPS-primed macrophages; format: cell-based; details: Mus musculus
# Procedure: The RAW 264.7 mouse macrophage cell line (ATCC® TIB-71) was cultivated in high glucose DMEM with 10% foetal bovine serum (FBS), 100 U/mL penicillin, 100 μg/mL streptomycin, and 100 μg/mL L-glutamate. The cells were incubated at 37°C in a humidified environment with 95% air and 5% CO2. Confluent macrophages (2 x 10^5/well) were cultured with lipopolysaccharide (LPS; 20 μg/mL; Sigma, St. Luis, MO, USA) and indomethacin (25–200 μg/mL) as the positive control, along with various concentrations (5–200 μg/mL) of treatment compounds. The cells were incubated for 24 hours. 100 μL of Griess reagent were combined with 100 μL portions of cell culture medium and left to incubate at room temperature for 10 minutes. The absorbance at a wavelength of 550 nm was measured using a microplate reader, namely the Spectro Scan 80D UV-VIS spectrophotometer manufactured by Sedico Ltd. in Nicosia, Cyprus. The nitrite concentration was assessed by comparing it to a standard curve of sodium nitrite. A cytotoxicity protocol using SRB was conducted to assess the impact of the test substances under study on RAW 264.7 viability.
# [16] = DPPH free radical scavenger assay; details: DPPH radical scavenging; n = 12
# Description: This approach relies on the reduction of the radicals, which causes a change in colour from oxidized purple to reduced yellow. Primarily, Diphenyl-2-picryl-hydrazyl (DPPH) is reduced in a solution of methanol (MeOH) when a chemical that donates hydrogen is present. This reduction is due to the creation of the non-radical form DPPH-H. The alteration in colour can be precisely assessed by employing a spectrophotometer within the wavelength range of 515–520 nm. Unlike other assays for radical scavenging, the DPPH radical is stable and yields consistent spectroscopic data. A 0.2 mM DPPH solution was diluted with MeOH and then combined with treatment compounds and ascorbic acid in a 1:1 concentration ratio using a 96-well plate. […] The solution was then incubated for one hour, isolated from light. Subsequently, the alteration in absorbance at a wavelength of 517 nm was quantified using a microplate reader manufactured by Bio-Tek Instrument in the United States. Ascorbic acid served as a strong and traditional benchmark for comparing the effectiveness of radical scavenging agents. The DPPH radical scavenging activity inhibition was calculated using the following equation, where A denotes photometric absorbance: The formula to calculate the percentage difference between a control and a sample is: (A control – A sample)/ A control x 100% [71, 72].
SMILES,IC50 [1] [µM],IC50 [2] [µM],IC50 [3] [µM],IC50 [4] [µM],IC50 [5] [µM],IC50 [6] [µM],IC50 [7] [µM],IC50 at 72 h [8] [µM],IC50 [9] [µM],IC50 [10] [µM],IC50 [11] [µM],IC50 [12] [µM],IC50 [13] [µM],IC50 [14] [µM],"IC50 ([15]; RAW264.7, 24 h, read-out: iNOS- IC50 value) [µM]","IC50 ([15]; RAW264.7, read-out: IC50, ability to reduce inflammation) [µM]",IC50 [16] [µM]
"C[C@H](Cc1ccc(O)c(O)c1)[C@@H](C)Cc1ccc(O)c(O)c1 [4,4’-((2R,3S)-2,3-dimethylbutane-1,4-diyl)bis(benzene-1,2-diol)]",0.0365,–,–,–,–,–,–,–,–,–,–,–,–,–,–,–,–
"O=c1c(O)c(-c2cc(O)c(O)c(O)c2)oc2cc(O)cc(O)c12 [Myricetin, reference compound]",–,32.6 ± 1.06,65.4 ± 1.84,73 ± 0.78,198 ± 43,27.5 ± 4.47,88.9 ± 14.1,> 200,42.8 ± 0.78,29.8 ± 2.6,51.7 ± 4.1,44.7 ± 2.14,106.5 ± 0.6,35.8 ± 4.4,0.07 ± 0.01,0.05,70.7 ± 11.6
